Measurements published in patent US5159080A, “Indole compounds, a process for their preparation, and pharmaceutical compositions containing them” (Madaus AG, priority 1988, dated 1992).
Like-named read-outs stand apart in the source and are kept apart here.

Assays:
[1] = system: guinea pig right auricles; test: Isolated, spontaneously beating right auricles, chronotropic effect; details: Cavia porcellus, read-out: Maximum effect in % of initial value, RIGHT AURICLE CHRONOTROPIC; for Emax at 4 µg/mL: 4.0 μg/ml; for Emax at 10 µg/mL: 10.0 μg/ml; for Emax at 20 µg/mL: 20.0 μg/ml; for Emax at 2 µg/mL: 2.0 μg/ml
Protocol: (§1) The test process employed is described, inter alia, in: Staff of the Department of Pharmacology, University of Edinburgh (1970): Pharmacological Experiments on Isolated Preparation, Churchill Livingston, Edinburgh, London and New York, page 112.
(§2) Animals having a body weight of about 500 g, were used and were divided into groups of 4 animals each. The compounds to be tested were dissolved in tyrode solution/sodium chloride solution 50:50 v/v and the desired concentration adjusted in the bath liquid. The experiment was carried out in the known manner.

[2] = Change of heart frequency and average blood pressure in narcotized rats (maximum effect over 2 hours); format: in vivo; details: Rattus norvegicus, iv, maximum effect over 2 h, hemi-tartrate; for change in vivo at 5 mg/kg: 5 mg/kg i.v.; for change in vivo at 10 mg/kg: 10 mg/kg i.v.; for change in vivo at 2 mg/kg: 2 mg/kg i.v.; for change in vivo at 20 mg/kg: 20 mg/kg i.v.; for change in vivo at 50 mg/kg: 50 mg/kg i.v.
guinea pig left auricles = test: Isolated left auricles stimulated with 1 Hz, inotropic effect; details: Cavia porcellus, read-out: Maximum effect in % of initial value, LEFT AURICLE INTROPIC; for Emax at 4 µg/mL: 4.0 μg/ml; for Emax at 10 µg/mL: 10.0 μg/ml; for Emax at 20 µg/mL: 20.0 μg/ml; for Emax at 0.5 µg/mL: 0.5 μg/ml; for Emax at 2 µg/mL: 2.0 μg/ml
Protocol: as §1, §2

[3] = read-out: BLOOD PRESSURE CHANGE AVERAGE PRESSURE (%)
[4] = read-out: CHANGE OF HEART FREQUENCY (%)

Compound	Emax at 4 µg/mL [1]	Emax at 10 µg/mL [1]	Emax at 20 µg/mL [1]	change in vivo at 5 mg/kg [2, 3]	change in vivo at 10 mg/kg [2, 3]	change in vivo at 10 mg/kg [2, 4]	Emax at 4 µg/mL (guinea pig left auricles)	Emax at 10 µg/mL (guinea pig left auricles)	Emax at 20 µg/mL (guinea pig left auricles)	Emax at 2 µg/mL [1]	change in vivo at 2 mg/kg [2, 3]	change in vivo at 5 mg/kg [2, 4]	Emax at 2 µg/mL (guinea pig left auricles)	other results
COc1cc2[nH]c3c(c2c(OC)c1OC)C[C@@H]1CN(C)CC[C@@H]1CC3=O (relative stereo) [SI-WG 587]	-10.4%	-13.9%	-19.8%	12.2%	11.6%	-4.8%	14.9%	29.4%	31.8%	–	–	–	–	–
COc1cccc2c3c([nH]c12)C(=O)C[C@H]1CCN(C)C[C@H]1C3 (relative stereo) [SI-WG 583]	-23.7%	-30.3%	–	-11.7%	-12%	-11.2%	-5.1%	-14.9%	–	-16.1%	2.3%	-10%	–	change in vivo at 2 mg/kg [2, 4]: -3.4%
CN1CC[C@@H]2CC(=O)c3[nH]c4c(O)cccc4c3C[C@@H]2C1 (relative stereo) [SI-WG 625]	-17.4%	-26.3%	–	-9.4%	–	–	-4.7%	-8.9%	–	-13.8%	–	-8.4%	–	–
CN1CC[C@@H]2CC(=O)c3[nH]c4ccc(O)cc4c3C[C@@H]2C1 (relative stereo) [SI-WG 571, 1.3.4.4a,5,7,12, 12a-octahydro-10-hydroxy-2-methyl-2H-pyrido[3',4':4,5] cyclohept [1,2-b] indol-6-one]	-8.4%	-9.1%	–	–	-14.1%	-11.6%	-3.9%	-11.4%	–	-3.1%	–	–	–	change in vivo at 2 mg/kg [2, 4]: -1.4%
O=C1C[C@H]2CCNC[C@H]2Cc2c1[nH]c1ccccc21 (relative stereo) [SI-WG 422]	-36.1%	–	–	–	–	-12.8%	-14.9%	–	–	-19.3%	–	–	-12.2%	Emax at 0.5 µg/mL ([1]; 0.5 μg/ml): -6.7%; change in vivo at 20 mg/kg [2, 3]: 21.8%; change in vivo at 20 mg/kg [2, 4]: -15.5%; Emax at 0.5 µg/mL (guinea pig left auricles): -4.2%
CN1CC[C@@H]2CC(=O)c3[nH]c4cc5c(cc4c3C[C@@H]2C1)OCO5 (relative stereo) [SI-WG 562]	-15.7%	-31.8%	–	-9.4%	-12.4%	-6%	-6%	-7.4%	–	-11.3%	-3.4%	–	-4.1%	–
CN1CCC2=C(Cc3c([nH]c4ccccc34)C(=O)C2)C1 [SI-WG 334a, 1,3,4,5,7,12-hexahydro-2-methyl-2H-pyrido [3',4':4,5]-cyclohept [1,2-b] indol-6-one]	–	-29%	-43%	-25.9%	-30.1%	-20.8%	–	25%	33%	-14%	-17.2%	-19.6%	26%	change in vivo at 2 mg/kg [2, 4]: -21.2%
CN1CC[C@@H]2CC(=O)c3[nH]c4ccc(C#N)cc4c3C[C@@H]2C1 (relative stereo) [SI-WG 600]	-32.7%	-49.1%	–	-6%	4.8%	-9.4%	23%	30%	–	-25.2%	9.5%	-8.9%	12.4%	–
CCCN1CC[C@@H]2CC(=O)c3[nH]c4ccccc4c3C[C@@H]2C1 (relative stereo) [SI-WG 533]	-26%	-34.1%	–	-20.1%	-22.7%	-17.9%	18.1%	17%	–	-15.9%	–	-9.7%	11.1%	change in vivo at 20 mg/kg [2, 3]: -37.4%; change in vivo at 20 mg/kg [2, 4]: -19.8%
CN1CC=C2CC(=O)c3[nH]c4ccccc4c3CC2C1 (centres unmarked) [SI-WG 360, 1,3,5,7,12,12a-hexahydro-2-methyl-2H-pyrido [3',4':4,5]-cyclohept [1,2-b] indol-6-one]	–	-29%	-41%	-23%	-34.2%	-22.2%	–	39%	50%	-10%	-10.3%	-14.3%	17%	change in vivo at 2 mg/kg [2, 4]: -10.7%
Cc1ccc2[nH]c3c(c2c1)C[C@@H]1CN(C)CC[C@@H]1CC3=O (relative stereo) [SI-WG 379]	-46%	-81%	–	-19.2%	-22%	–	24%	23%	–	-35%	–	-17.4%	24%	Emax at 0.5 µg/mL ([1]; 0.5 μg/ml): -14%; Emax at 0.5 µg/mL (guinea pig left auricles): 8%
CC(=O)Nc1ccc2[nH]c3c(c2c1)C[C@@H]1CN(C)CC[C@@H]1CC3=O (relative stereo) [SI-WG 604]	–	-10.2%	-15.6%	–	-10.7%	–	–	9.8%	8.2%	–	–	–	–	Emax at 60 µg/mL ([1]; 60.0 μg/ml): -24.7%; change in vivo at 20 mg/kg [2, 3]: -15.6%; Emax at 60 µg/mL (guinea pig left auricles; 60.0 μg/ml): 13.8%
CC(=O)c1[nH]c2ccccc2c1CC1CN(C)CCC1=O (centres unmarked) [SI-WG 331, 2-Acetyl-3-(N.methyl-4-'-piperidon-3'-ylmethyl)-indole]	–	-12%	-23%	–	–	–	–	14%	31%	-7%	–	–	8%	change in vivo at 20 mg/kg [2, 3]: -18.4%; change in vivo at 20 mg/kg [2, 4]: -9.7%; change in vivo at 50 mg/kg [2, 3]: -29.1%; change in vivo at 50 mg/kg [2, 4]: -19.3%
COc1ccc2[nH]c3c(c2c1)C[C@@H]1CN(C)CC[C@@H]1CC3=O (relative stereo) [SI-WG 449]	–	-40%	-57%	-10%	-22%	-17%	–	23%	20%	-19%	-16%	-12%	16%	–
CN1CC[C@@H]2CC(=O)c3[nH]c4ccc(Br)cc4c3C[C@@H]2C1 (relative stereo) [SI-WG 399]	-66%	-83%	–	–	–	-12.1%	13%	–	–	-43%	–	-6.6%	25%	inhibition at 0.5 µg/mL ([1]; 0.5 μg/ml): 22%
CN1CC[C@@H]2CC(=O)c3c(c4ccccc4n3C)C[C@@H]2C1 (relative stereo) [SI-WG 591]	-31.9%	-43.9%	–	–	–	–	12%	27.4%	–	-20%	–	–	11.8%	–
